Results taken from patent US5888993A, “Vanadium compounds in the treatment of elevated blood sugar levels” (The University of British Columbia, priority 1997, dated 1999).
“And” between values parts separate entries of the source, which are not always exact repeats. Equal values may be shown once.

Legend:
[1] = log p (partition coefficient); format: physicochemical
[2] = test system: diabetic rats; experiment: Comparison of BMOV and vanadyl kojate, acute time course of plasma glucose, rats made diabetic with STZ; format: in vivo, rat; set-up: plasma glucose level: unit not given here
Method: Using BMOV and Vanadyl Kojate as prepared in Examples 1 and 2 above, the relative efficacy of the two compounds was assessed using rats made diabetic with STZ. Again the animals were divided into responder and non-responder groups. For a 0.063 mmol V/kg ip injection, BMOV gave a 50:50 split between responder and non-responder groups whereas for vanadyl kojate the ratio was 60:40. On oral gavage of 0.55 mmol V/kg the responder:non-responder ratios were 50:50 and 57:43 respectively (n=10). However over a 12 day test period, there was a 100% response in terms of blood glucose reduction for diabetic rats receiving vanadyl kojate orally.

[3] = test system: diabetic rats; experiment: Comparative testing, plasma glucose after oral gavage in STZ diabetic rats; format: in vivo, male wistar rats; details: oral gavage 1 mmol/kg
Method: Diabetes was induced in all animals by a single intravenous injection of streptozotocin (STZ) 60 mg/kg in 0.9% NaCl via the tail vein. Three days after STZ injection, blood was collected from the tail by nicking the tail tip and expressing the blood into heparinized capillary tubes. Blood was centrifuged at 20,000 g for 10 minutes to separate the plasma. Glucose analysis was done immediately on the plasma sample using a Boehringer Mannheim kit. […] One week after STZ injection animals were randomly divided into 3 pairs of rats. Each pair of rats received by oral gavage 1 mmol/kg of BMOV or VO(Sal)2 or VO(acac)2, suspended in 3% acacia.

[4] = test system: red blood cells; details: cytoplasm; cited from earlier work
[5] = in vivo; cited from earlier work
[6] = test system: rats made diabetic with streptozoticin (STZ); details: oral / drinking water; cited from earlier work
[7] = in vivo; cited from earlier work; remark: listed apart in the source
[8] = cited from earlier work
[9] = test system: Wistar Kyoto (WKY) rats; experiment: Blood pressure study with vanadyl sulphate, normotensive Wistar Kyoto rats; format: in vivo, rat; details: for changes in normotensive animals, prevention: WKYV; for effect in Wistar Kyoto rats, reversal: WKYV1, treatment from week 11
Method: (§1) The insulin resistant spontaneously hypertensive rat was used as the experiment model and the vanadyl form of vanadium as the experimental intervention. […] Rats, procured at 4 weeks of age, were divided
(§2) into 4 groups: SHR (untreated), SHRV (treated), WKY (untreated), WKYV (treated). Chronic vanadyl sulfate treatment (0.75 mg/ml ad libitum in the drinking water) was started on the SHRV and WKYV groups at 5 weeks of age. After week 8, when hypertension becomes fully manifest in the SHR, weekly measurements of plasma insulin and systolic blood pressure (tail cuff method) were done on all four groups.
(§3) At week 11, the untreated control SHR and WKY groups from the prevention study were further subdivided and half the animals in each group were started on oral vanadyl sulfate treatment. This was done to observe the reversal effects of vanadyl, if any, after the SHR had become hypertensive. […] A direct blood pressure reading done in all groups at termination validated the earlier indirect measurements. Vanadyl sulfate prevented as well as reversed hypertention in the hyperinsulinemic spontaneously hypertensive rat, a model that closely resembles human essential hypertension. Besides establishing further the role that insulin resistance/hyperinsulinemia may play in the development of high blood pressure, this study also indicated a possible therapeutic role for vanadyl sulfate in hypertensive, hyperinsulinemic subjects.

[10] = test system: spontaneously hypertensive rats (SHR); experiment: Blood pressure reduction by vanadyl sulphate, spontaneously hypertensive rats; format: in vivo, rat; details: for systolic blood pressure / hypertension, prevention: 75-125 mg/kg/day in drinking water
Method: as §1, §2, §3

[11] = test system: diabetic rats; experiment: Glucose time course after gavage of ammonium bis(maltolato)dioxovanadate in STZ diabetic rats; format: in vivo, male Wistar rats; details: 0.55 mmoles/kg gavage
Method: Six male Wistar rats, weighing 175-200 gm, were made diabetic by the intravenous injection of 60 mg/kg of streptozotocin dissolved in 0.9% saline via the tail vein. Seven days after the injection the rats were diabetic having an average glucose concentration of 24.20 mM. 0.55 mmoles/kg of the ammonium salt of bis(maltolato)dioxovanadate suspended in 3% acacia was gavaged into the rats. Blood was collected and analyzed for glucose as a function of time.

[12] = test system: STZ-diabetic rats; experiment: Comparison of BMOV and ETHYLBMOV, plasma glucose and insulin in STZ-diabetic rats; format: in vivo, rat; details: 0.6 mmol kg^-1, one oral gavage, 24 hour period
Method: Animal studies were conducted in STZ-diabetic rats comparing doses of 0.6 mmol kg^-1 for VO(ma)2 (BMOV) and VO(ema)2 (ETHYLVMOV). FIGS. 8 and 9 respectively show plasma glucose and plasma insulin values recorded over 24 hour periods after one oral gavage of a water solution of either BMOV or ETHYLBMOV, in order to compare their efficacies.

[13] = test system: Na^+ -K^+ ATPase; details: cited from earlier work
[14] = test system: rat adipocytes; details: in vitro; cited from earlier work
[15] = 0 h, individual rats (two per drug)
[16] = SHRV, 75-125 mg/kg/day, weeks 8-12

[O]=[V-2]12([O]C3=COC(CO)=CC3=[O+]1)[O]C1=COC(CO)=CC1=[O+]2 [vanadyl kojate, Bis(kojato)oxovanadium(IV)]
log p [1]: 0.012
plasma glucose level ([2]; i.p. 0.063 mmol/kg, nonresponders (DTN), 0 h): 20.86
plasma glucose level ([2]; i.p. 0.063 mmol/kg, nonresponders (DTN), 1 h): 18.55
plasma glucose level ([2]; i.p. 0.063 mmol/kg, nonresponders (DTN), 2 h): 16.62
plasma glucose level ([2]; i.p. 0.063 mmol/kg, nonresponders (DTN), 4 h): 17.37
plasma glucose level ([2]; i.p. 0.063 mmol/kg, nonresponders (DTN), 6 h): 16.62
plasma glucose level ([2]; i.p. 0.063 mmol/kg, nonresponders (DTN), 8 h): 15.49
plasma glucose level ([2]; i.p. 0.063 mmol/kg, nonresponders (DTN), 12 h): 18.24
plasma glucose level ([2]; i.p. 0.063 mmol/kg, nonresponders (DTN), 24 h): 18.77
plasma glucose level ([2]; i.p. 0.063 mmol/kg, responders (DTR), 0 h): 17.94
plasma glucose level ([2]; i.p. 0.063 mmol/kg, responders (DTR), 1 h): 14.75
plasma glucose level ([2]; i.p. 0.063 mmol/kg, responders (DTR), 2 h): 10.17
plasma glucose level ([2]; i.p. 0.063 mmol/kg, responders (DTR), 4 h): 9.26
plasma glucose level ([2]; i.p. 0.063 mmol/kg, responders (DTR), 6 h): 8.73
plasma glucose level ([2]; i.p. 0.063 mmol/kg, responders (DTR), 8 h): 7.4
plasma glucose level ([2]; i.p. 0.063 mmol/kg, responders (DTR), 12 h): 10.37
plasma glucose level ([2]; i.p. 0.063 mmol/kg, responders (DTR), 24 h): 13.28
plasma glucose level ([2]; oral gavage 0.55 mmol/kg, nonresponders (DTN), 0 h): 23.08
plasma glucose level ([2]; oral gavage 0.55 mmol/kg, nonresponders (DTN), 1 h): 21.18
plasma glucose level ([2]; oral gavage 0.55 mmol/kg, nonresponders (DTN), 2 h): 21.51
plasma glucose level ([2]; oral gavage 0.55 mmol/kg, nonresponders (DTN), 4 h): 20.57
plasma glucose level ([2]; oral gavage 0.55 mmol/kg, nonresponders (DTN), 6 h): 18.2
plasma glucose level ([2]; oral gavage 0.55 mmol/kg, nonresponders (DTN), 8 h): 19.06
plasma glucose level ([2]; oral gavage 0.55 mmol/kg, nonresponders (DTN), 12 h): 18.81
plasma glucose level ([2]; oral gavage 0.55 mmol/kg, nonresponders (DTN), 24 h): 25.0
plasma glucose level ([2]; oral gavage 0.55 mmol/kg, responders (DTR), 0 h): 15.75
plasma glucose level ([2]; oral gavage 0.55 mmol/kg, responders (DTR), 1 h): 12.5
plasma glucose level ([2]; oral gavage 0.55 mmol/kg, responders (DTR), 2 h): 10.1
plasma glucose level ([2]; oral gavage 0.55 mmol/kg, responders (DTR), 4 h): 7.96
plasma glucose level ([2]; oral gavage 0.55 mmol/kg, responders (DTR), 6 h): 6.6
plasma glucose level ([2]; oral gavage 0.55 mmol/kg, responders (DTR), 8 h): 6.87
plasma glucose level ([2]; oral gavage 0.55 mmol/kg, responders (DTR), 12 h): 6.01
plasma glucose level ([2]; oral gavage 0.55 mmol/kg, responders (DTR), 24 h): 6.74
food and fluid demand ([2]; oral, 12 day test period): significantly reduced
response in terms of blood glucose reduction ([2]; oral, 12 day test period): 100%

CC(=O)/C=C(/C)[O-].CC(=O)/C=C(/C)[O-].[O]=[V+2] [VO(acac)2, Bis(acetylacetonate)oxovanadium(IV)]
plasma glucose level [3, 15]: 23.87 mM and 22.74 mM
plasma glucose level ([3]; 2 h, individual rats): 22.91 mM and 24.5 mM
plasma glucose level ([3]; 4 h, individual rats): 22.37 mM and 22.89 mM
plasma glucose level ([3]; 6 h, individual rats): 23.96 mM and 22.94 mM
plasma glucose level ([3]; 8 h, individual rats): 27.19 mM and 23.65 mM
plasma glucose level ([3]; 12 h, individual rats): 19.13 mM and 18.86 mM
plasma glucose level ([3]; 24 h, individual rats): 2.43 mM
death ([3]; 24 h, rat 5): dead

O=Cc1ccccc1[O-].O=Cc1ccccc1[O-].[O]=[V+2] [VO(Sal)2, Bis(salicylaldehyde)oxovanadium(IV)]
plasma glucose level [3, 15]: 21.09 mM and 21.12 mM
plasma glucose level ([3]; 2 h, individual rats): 22.77 mM and 22.31 mM
plasma glucose level ([3]; 4 h, individual rats): 20.18 mM and 21.74 mM
plasma glucose level ([3]; 6 h, individual rats): 20.67 mM and 21.85 mM
plasma glucose level ([3]; 8 h, individual rats): 21.57 mM and 21.59 mM
plasma glucose level ([3]; 12 h, individual rats): 19.24 mM and 19.74 mM
plasma glucose level ([3]; 24 h, individual rats): 18.73 mM and 18.64 mM

[O]=[V]([O-])([O-])[O-] [vanadate]
reduction of vanadate in red blood cells [4]: reduced to vanadium (IV)
toxicity [5]: toxic
blood glucose [6]: decreased the elevated blood glucose
cardiac performance / secondary complications of diabetes [6]: prevented the depression of cardiac performance
absorption from the gastrointestinal tract [7]: poorly absorbed
in vivo reduction [8]: reduced in vivo to vanadyl

O=S(=O)([O-])[O-].[O]=[V+2] [vanadyl sulfate]
changes in normotensive animals, prevention [9]: No changes were seen
effect in Wistar Kyoto rats, reversal [9]: no effect
effect in Wistar Kyoto rats, reversal ([9]; listed as vanadyl): no effect is observed
changes in normotensive animals, prevention ([9]; listed as vanadyl): No change is observed
adverse effect on normal animals (hypotension) ([9]; normal animals): no adverse effect on normal animals
toxicity [5]: less toxic than the vanadate form of vanadium
hypertension / blood pressure, reversal ([10]; SHRV1, treatment from week 11): reversed hypertension
plasma insulin, reversal ([10]; SHRV1, treatment from week 11): lowering their plasma insulin to control values
hypertension / blood pressure, reversal ([10]; SHRV1, treatment from week 11, listed as vanadyl): reduce the blood pressure
systolic blood pressure / hypertension, prevention ([10]; SHRV, weeks 8-12): lowered both plasma insulin and systolic blood pressure
systolic blood pressure / hypertension, prevention ([10]; SHRV, weeks 8-12, listed as vanadyl): prevents the onset of hypertension
plasma glucose levels [10, 16]: without causing any change in the plasma glucose levels
plasma insulin, prevention [10, 16]: lowered both plasma insulin and systolic blood pressure
gastrointestinal, renal or hepatic toxicity ([10]; treated animals, 75-125 mg/kg/day, entire experimental period): No gastrointestinal, renal or hepatic toxicity
blood glucose [6]: lowers blood glucose and blood lipids
cardiac performance / secondary complications of diabetes [6]: prevents secondary complications of diabetes such as cataracts and cardiac dysfunction
absorption from the gastrointestinal tract [7]: poorly absorbed

Cc1occc(=O)c1[O-].Cc1occc(=O)c1[O-].[NH4+].[O]=[V+]=[O] [Ammonium bis(maltolato)dioxovanadate]
reduction of elevated glucose levels, in words [11]: effective in reducing the elevated glucose levels
Glucose ([11]; 0 h): 24.2 mM
Glucose ([11]; 1 h): 24.4 mM
Glucose ([11]; 2 h): 25.5 mM
Glucose ([11]; 4 h): 24.7 mM
Glucose ([11]; 8 h): 22.3 mM
Glucose ([11]; 12 h): 20.1 mM
Glucose ([11]; 24 h): 14.9 mM

Bis(ethylmaltolato)oxovanadium(IV) [ETHYLBMOV]
plasma glucose, difference BMOV vs ETHYLBMOV [12]: statistically insignificant
plasma insulin, difference BMOV vs ETHYLBMOV [12]: statistically insignificant

[Na+].[Na+].[Na+].[O]=[V]([O-])([O-])[O-] [Sodium orthovanadate]
inhibition of Na^+ -K^+ ATPase [13]: potent inhibitor

[O]=[V+2] [vanadyl ion]
insulin-like stimulation of glucose oxidation [14]: insulin-like stimulation of glucose oxidation
